Earlier results as cited in patent US8357388B2, “Drug depot implant designs and methods of implantation” (Warsaw Orthopedic, Inc., priority 2006, dated 2013).

Test system: PGE2 production
Conditions: in cell culture

Which “PGE2 production and local inflammation” value does the source give for COc1ccc2cc(CC(=O)O)ccc2c1 [6-methoxy-2-napthylacetic acid] here?
The value was “suppress PGE2 production and local inflammation”.
